Active and inactive are the calls of the source. The calls are words filed in the database; no cut-off is given here.
Legend:
Jurkat [1] = experiment: Cytotoxicity against human Jurkat cells assessed as reduction in cell viability at 100 uM incubated for 3 days by MTT assay; type: functional, cell-based; conditions: time 3.0 day
MT2 [2] = experiment: Cytotoxicity against human MT2 cells infected with HTLV-1 assessed as reduction in cell viability at 100 uM incubated for 3 days by MTT assay; type: functional, cell-based; conditions: time 3.0 day
MT2 [3] = experiment: Preferential cytotoxicity against human MT2 cells infected with HTLV-1 assessed as reduction in cell viability at 10 to 25 uM incubated for 3 days by MTT assay; type: functional, cell-based; conditions: dose 10-25 µM, time 3.0 day
Jurkat [4] = experiment: Cytotoxicity against human Jurkat cells assessed as reduction in cell viability at 50 uM incubated for 3 days by MTT assay; type: functional, cell-based; conditions: time 3.0 day
MT2 [5] = experiment: Cytotoxicity against human MT2 cells infected with HTLV-1 assessed as reduction in cell viability at 50 uM incubated for 3 days by MTT assay; type: functional, cell-based; conditions: time 3.0 day
MT2 [6] = experiment: Suppression of GAG protein cleavage in human MT-2 cells infected with HTLV-1 assessed as reduction in intracellular p28 protein expression at 50 uM incubated for 3 days by immunoblot analysis; type: cell-based; conditions: time 3.0 day
HeLa [7] = experiment: Upregulation of membrane localized GAG protein expression in human HeLa cells transfected with GAG-FLAG expression vector assessed as effect on E-cadherin protein expression at 50 uM by chemiluminescence based immunoblotting analysis; type: functional, cell-based
HeLa [8] = experiment: Induction of GAG aggregation in human HeLa cells transfected with Gag-Venus expression vector assessed as increase in number of bright GAG dots at 50 uM incubated for 2 hrs by immunostaining based confocal microscopic analysis; type: cell-based
MT2 [9] = experiment: Suppression of GAG protein cleavage in human MT-2 cells infected with HTLV-1 assessed as increase in intracellular Pr53 protein expression at 50 uM incubated for 3 days by immunoblot analysis; type: cell-based; conditions: time 3.0 day
MT2 [10] = experiment: Induction of GAG aggregation in middle cross section of human MT-2 cells infected with HTLV-1 assessed as ratio of cells with aggregated GAG at 50 uM incubated for 2 hrs by immunostaining based confocal microscopic analysis (reference value: 44.1%); type: cell-based
MT2 [11] = experiment: Induction of GAG aggregation in top cross section of human MT-2 cells infected with HTLV-1 assessed as ratio of cells with aggregated GAG at 50 uM incubated for 2 hrs by immunostaining based confocal microscopic analysis (reference value: 4.3%); type: cell-based
HeLa [12] = experiment: Induction of GAG aggregation in human HeLa cells transfected with Gag-FLAG expression vector assessed as increase in number of bright GAG dots at 50 uM incubated for 2 hrs by immunostaining based confocal microscopic analysis; type: cell-based
MT2 [13] = experiment: Suppression of GAG protein cleavage in human MT-2 cells infected with HTLV-1 assessed as reduction in p19 protein expression in supernatant at 50 uM incubated for 3 days by immunoblot analysis; type: cell-based; conditions: time 3.0 day

SMILES | Activity (Jurkat [1]) | Activity (MT2 [2]) | Activity (Jurkat [4]) | Activity (MT2 [5]) | other results
CC1(C)CC[C@]2(C(=O)O[C@@H]3O[C@H](CO[C@@H]4O[C@H](CO)[C@@H](O)[C@H](O)[C@H]4O)[C@@H](O)[C@H](O)[C@H]3O)CC[C@]3(C)C(=CC[C@@H]4[C@@]5(C)CC[C@H](O[C@@H]6OC[C@H](O)[C@H](O)[C@H]6O)[C@@](C)(CO)[C@@H]5CC[C@]43C)[C@@H]2C1 | inactive | inactive | – | – | –
CC1(C)CC[C@]2(C(=O)O)CC[C@]3(C)C(=CC[C@@H]4[C@@]5(C)CC[C@H](O[C@@H]6OC[C@H](O)[C@H](O)[C@H]6O[C@@H]6OC[C@@H](O)[C@H](O)[C@H]6O)[C@@](C)(CO)[C@@H]5CC[C@]43C)[C@@H]2C1 | Active | Active | Active | Active | Activity (MT2 [3]): inactive
C[C@@H]1O[C@@H](O[C@H]2[C@H](O[C@H]3CC[C@@]4(C)[C@@H](CC[C@]5(C)[C@@H]4CC=C4[C@@H]6CC(C)(C)CC[C@]6(C(=O)O[C@@H]6O[C@H](CO[C@@H]7O[C@H](CO)[C@@H](O[C@@H]8O[C@@H](C)[C@H](O)[C@@H](O)[C@H]8O)[C@H](O)[C@H]7O)[C@@H](O)[C@H](O)[C@H]6O)CC[C@]45C)[C@]3(C)CO)OC[C@H](O)[C@@H]2O)[C@H](O)[C@H](O)[C@H]1O | inactive | inactive | – | – | –
CC1(C)CC[C@]2(C(=O)O)CC[C@]3(C)C(=CC[C@@H]4[C@@]5(C)CC[C@H](O[C@@H]6OC[C@H](O)[C@H](O)[C@H]6O)[C@@](C)(CO)[C@@H]5CC[C@]43C)[C@@H]2C1 | Active | Active | Active | Active | Activity (MT2 [3]): inactive
CC1(C)CC[C@]2(C(=O)O)CC[C@]3(C)C(=CC[C@@H]4[C@@]5(C)CC[C@H](O[C@@H]6OC[C@H](O)[C@H](O)[C@H]6O[C@@H]6O[C@H](CO)[C@@H](O)[C@H](O)[C@H]6O)[C@@](C)(CO)[C@@H]5CC[C@]43C)[C@@H]2C1 | Active | Active | inactive | Active | Activity (MT2 [6]): Active; Activity (HeLa [7]): inactive; Activity (HeLa [8]): Active; Activity (MT2 [9]): inactive; Ratio (MT2 [10]): 41.3%; Ratio (MT2 [11]): 7.3%; Activity (HeLa [12]): Active; Activity (MT2 [13]): Active
CC1(C)CC[C@]2(C(=O)O)CC[C@]3(C)C(=CC[C@@H]4[C@@]5(C)CC[C@H](O)[C@@](C)(CO)[C@@H]5CC[C@]43C)[C@@H]2C1 | – | – | Active | Active | Activity (MT2 [6]): inactive; Activity (MT2 [9]): inactive; Activity (MT2 [13]): inactive
C[C@@H]1O[C@@H](O[C@H]2[C@H](O)[C@@H](O)[C@H](OC[C@H]3O[C@@H](OC(=O)[C@]45CCC(C)(C)C[C@H]4C4=CC[C@@H]6[C@@]7(C)CC[C@H](O[C@@H]8OC[C@H](O[C@@H]9O[C@@H](C)[C@H](O)[C@@H](O)[C@H]9O)[C@H](O)[C@H]8O[C@@H]8O[C@H](CO)[C@@H](O)[C@H](O)[C@H]8O)[C@@](C)(CO)[C@@H]7CC[C@@]6(C)[C@]4(C)CC5)[C@H](O)[C@@H](O)[C@@H]3O)O[C@@H]2CO)[C@H](O)[C@H](O)[C@H]1O | inactive | inactive | – | – | –
CC1(C)CC[C@]2(C(=O)O[C@@H]3O[C@H](CO[C@@H]4O[C@H](CO)[C@@H](O)[C@H](O)[C@H]4O)[C@@H](O)[C@H](O)[C@H]3O)CC[C@]3(C)C(=CC[C@@H]4[C@@]5(C)CC[C@H](O[C@@H]6OC[C@H](O)[C@H](O)[C@H]6O[C@@H]6OC[C@@H](O)[C@H](O)[C@H]6O)[C@@](C)(CO)[C@@H]5CC[C@]43C)[C@@H]2C1 | inactive | inactive | – | – | –

Reference: ChEMBL document CHEMBL5325478, “The unique activity of saponin: Induction of cytotoxicity in HTLV-1 infected cells” (Bioorg Med Chem, 2023)
